According to ChEMBL document CHEMBL3872221, “Solvent-free synthesis of bacillamide analogues as novel cytotoxic and anti-inflammatory agents” (Eur J Med Chem, 2016):

Assays:
[1] = Cytotoxicity against human Jurkat cells assessed as cell survival at 10 uM measured after 48 hrs by MTT assay relative to control; assay type: functional; settings: read-out: Survival
[2] = Cytotoxicity against human HCT116 cells assessed as cell survival at 10 uM measured after 48 hrs by MTT assay relative to control; assay type: functional; settings: HCT-116, 48 h, read-out: Survival
[3] = Cytotoxicity against human MDA-MB-231 cells assessed as cell survival at 10 uM measured after 48 hrs by MTT assay relative to control; assay type: functional; settings: MDA-MB-231, 48 h, read-out: Survival
Rattus norvegicus [4] = experiment: Antiinflammatory activity in rat assessed as inhibition of carrageenan-induced hind paw edema at 50 mg/Kg, po administered 30 mins before carrageenan challenge measured after 1 hr relative to control; assay type: functional
Rattus norvegicus [5] = experiment: Antiinflammatory activity in rat assessed as inhibition of carrageenan-induced hind paw oedema at 50 mg/Kg, po administered 30 mins before carrageenan challenge measured after 2 hrs relative to control; assay type: functional
Rattus norvegicus [6] = experiment: Antiinflammatory activity in rat assessed as inhibition of carrageenan-induced hind paw oedema at 50 mg/Kg, po administered 30 mins before carrageenan challenge measured after 3 hrs relative to control; assay type: functional
Rattus norvegicus [7] = experiment: Antiinflammatory activity in rat assessed as inhibition of carrageenan-induced hind paw oedema at 50 mg/Kg, po administered 30 mins before carrageenan challenge measured after 4 hrs relative to control; assay type: functional
[8] = Cytotoxicity against human HCT116 cells assessed as effect on cell viability measured after 48 hrs by MTT assay; assay type: functional, cell-based; settings: HCT-116, 48 h
[9] = Cytotoxicity against human MDA-MB-231 cells assessed as effect on cell viability measured after 48 hrs by MTT assay; assay type: functional, cell-based; settings: MDA-MB-231, 48 h
[10] = Cytotoxicity against human Jurkat cells assessed as effect on cell viability measured after 48 hrs by MTT assay; assay type: functional, cell-based
Jurkat = experiment: Induction of apoptosis in human Jurkat cells assessed as activation of caspase 3/7 at 1 uM measured after 48 hrs by fluorescence assay relative to control; assay type: functional

Compound | viability at 10 µM [1] | viability at 10 µM [2] | viability at 10 µM [3] | inhibition in vivo at 50 mg/kg (Rattus norvegicus [4]) | inhibition in vivo at 50 mg/kg (Rattus norvegicus [5]) | inhibition in vivo at 50 mg/kg (Rattus norvegicus [6]) | inhibition in vivo at 50 mg/kg (Rattus norvegicus [7]) | IC50 [8] | IC50 [9] | IC50 [10] | fold change (FC) (Jurkat)
CC(=O)c1nc(C(=O)NCCc2c[nH]c3ccccc23)cs1 [BACILLAMIDE A] | 85.1% | 81.1% | 105% | 58% | 56% | 46% | 42% | – | – | – | –
Cc1ccc(-c2nc(C(=O)NCCc3c[nH]c4ccccc34)cs2)cc1 | 88.3% | 108% | 87.3% | 81% | 77% | 57% | 70% | – | – | – | –
Nc1nc(C(=O)NCCc2c[nH]c3ccccc23)cs1 | 42.3% | 20.3% | 24.8% | 86% | 74% | 54% | 82% | 5400 nM | 3000 nM | 3000 nM | 4 - 5
COc1cccc2c1C(=O)c1c(O)c3c(c(O)c1C2=O)C[C@@](O)(C(=O)CO)C[C@@H]3O[C@H]1C[C@H](N)[C@H](O)[C@H](C)O1 [DOXORUBICIN] | 18.7% | 23.1% | 22.1% | – | – | – | – | 330 nM | 450 nM | – | –
O=C(NCCc1c[nH]c2ccccc12)c1csc(Nc2ccc(Br)cc2)n1 | 85.5% | 55.3% | 41.5% | 23% | 54% | 49% | 46% | – | – | – | –
O=C(NCCc1c[nH]c2ccccc12)c1csc(Cc2ccccc2)n1 | 87.3% | 101% | 89% | 76% | 57% | 45% | 42% | – | – | – | –
COc1ccc2c(c1)c(CC(=O)O)c(C)n2C(=O)c1ccc(Cl)cc1 [INDOMETHACIN] | – | – | – | 94% | 84% | 81% | 86% | – | – | – | –
O=C(NCCc1c[nH]c2ccccc12)c1csc(-c2ccc(Cl)cc2)n1 | 84.8% | 99.2% | 94.8% | 68% | 63% | 62% | 56% | – | – | – | –
Cc1ccc(Nc2nc(C(=O)NCCc3c[nH]c4ccccc34)cs2)cc1 | – | – | – | 52% | 57% | 46% | 38% | – | – | – | –
O=C(NCCc1c[nH]c2ccccc12)c1csc(Nc2ccc(F)cc2)n1 | – | – | – | 83% | 60% | 59% | 42% | – | – | – | –
O=C(NCCc1c[nH]c2ccccc12)c1csc(-c2ccccc2)n1 | 87.3% | 97.6% | 88.3% | 55% | 62% | 25% | 57% | – | – | – | –
O=C(NCCc1c[nH]c2ccccc12)c1csc(Nc2ccccc2)n1 | 40.1% | 10.3% | 20.1% | 77% | 73% | 65% | 78% | 100 nM | 600 nM | 500 nM | 4 - 5
O=C(NCCc1c[nH]c2ccccc12)c1csc(-c2cccs2)n1 | 87.7% | 93.9% | 85.4% | 82% | 76% | 58% | 62% | – | – | – | –
O=C(NCCc1c[nH]c2ccccc12)c1csc(-c2ccco2)n1 | 87.2% | 96.9% | 84.4% | 75% | 69% | 49% | 46% | – | – | – | –
Cc1nc(C(=O)NCCc2c[nH]c3ccccc23)cs1 | 88.1% | 97% | 90.4% | 63% | 60% | 44% | 50% | – | – | – | –
O=C(NCCc1c[nH]c2ccccc12)c1csc(Nc2ccc(Cl)cc2)n1 | – | – | – | 49% | 59% | 50% | 41% | – | – | – | –
O=C(NCCc1c[nH]c2ccccc12)c1csc(Nc2ccc([N+](=O)[O-])cc2)n1 | 92.5% | 72.1% | 92.3% | 66% | 59% | 57% | 50% | – | – | – | –
